In patent publication US12350308B2, “Phosphorylcholine conjugates and uses thereof” (TPCERA LTD., priority 2013, dated 2025):
*1 amine or outer side, *2 acyl side, *3 side chain or, on linkers, in order; H or OH if unused. Where a SMILES comes first, the peptide text is derived from it. [ ]: non-standard residue; d: D form. X1 = C[N+](C)(C)CCOP(=O)([O-])Oc1ccc(N=Nc2cc(C[C@H](N[*:1])C(=O)[*:2])ccc2O)cc1

How the values were obtained:
[1] = tested on: splenocytes of NZBW/F1 female mice; test: Cytokine secretion in-vitro by splenocytes of lupus mice treated with TD-PC; type: in vivo; conditions: vs PBS
Protocol: (§1) NZBW/F1 female mice having lupus were treated with TD-PC (SEQ ID NO: 25 conjugated to PC) or the corresponding control treatments. Mice were sacrificed at week 30, and their splenocytes were studied in-vitro for the expression of pro-inflammatory cytokines (IFNγ, IL-17) and anti-inflammatory (TGFβ, IL-10) cytokines using RT-PCR. […] In contrast, TD-PC increased the mRNA expression of the anti-inflammatory cytokine TGFβ in the (p<0.001) compared to the mRNA expressed by splenocytes derived from PBS-treated mice (FIG. 24A).
However, a prominent increase in anti-inflammatory cytokines (TGFβ, IL-10) secretion in-vitro by splenocytes derived from TD-PC treated mice is illustrated in FIG. 24B. […] IFNγ secretion upon tuftsin derivative (SEQ ID NO: 25) or PC treatments was reduced by 2.5 and 1.5 times respectively (p<0.03 and p<0.04, respectively).

Breg cells = test: Breg expansion in splenocytes of CIA mice (FACS), Example 17; type: in vivo; conditions: subsets CD19+IL-10+TIM-1+ and IL-10highCD5highCD1dhigh; vs PBS
Protocol: The mean percentage of Breg cells in isolated splenocytes following treatment with TD-PC or PBS was measured within two main subsets CD19+IL-10+TIM-1+ (representative data: FIG. 30A, statistics: FIG. 30C, n=15) and IL-10^highCD5^highCD1d^high (representative data: FIG. 30B, statistics: FIG. 30D, n=15).

DBA/1 CIA mice = test: Arthritis score in mice with established CIA (treatment from day 16); type: in vivo
From the text: Rheumatoid Arthritis is a progressive joint deformation disease caused by severe inflammation. CIA mice were subjected to subcutaneous injections of TD-PC, tuftsin derivative (SEQ ID NO: 25), PC, a mix of TD and PC, or PBS, 3 times a week. […] Treatment started as day 16 after disease induction when disease symptoms were already notable. […] The significant reduction in arthritis score was illustrious from day 7 after treatment administration and lasted until day 35 (the day mice were sacrificed).

[2] = tested on: female NZBxW/F1 lupus prone mice; test: Proteinuria onset and immune complex deposits in lupus prone mice treated with TD-PC; type: in vivo; conditions: s.c., prophylactic from week 14
From the text: To examine the potential protective effect of TD-PC (SEQ ID NO: 25 conjugated to PC), female NZBxW/F1 lupus prone mice received subcutaneous injections (s.c) of the TD-PC conjugate, phosphorylcholine (PC), tuftsin derivative (SEQ ID NO: 25) or PBS (control) via a prophylactic protocol starting at week 14, before the clinical onset of lupus (n ¼ 15 per group).

CD4+CD25+FOXP3+ Tregs = test: Treg expansion in spleen cells of lupus mice treated with TD-PC (FACS); type: in vivo; conditions: gating on CD4+ T cells; PBS 4%
From the text: The percentage of CD4+CD25+FOXP3+ Tregs phenotype subset in spleen cells following treatment with TD-PC, tuftsin derivative (SEQ ID NO: 25), PC or PBS, is elucidated in FIGS. 25A-25B.

THP-1 cells = test: Shift of M1 polarized macrophages to M2 macrophages secreting IL-10; type: cell-based, human; conditions: 5 μg/ml for 72 hrs; in comparison to OVA-PC
Protocol: The relative expression of the anti-inflammatory cytokine IL-10 was analyzed in human macrophages treated with TD-PC (TD-PC), and PC-Ovalbumin (OVA-PC). Specifically, THP-1 cells (a monocytic cell line established from human monocytic leukemia) were induced to differentiation into adherent macrophage-like phenotype (M0) by culturing the cells (10^5 cells/ml) in the presence of phorbol 12-myristate 13-acetate (PMA; 80 nM) and VD3 (100 nM). For inducing differentiation from M0 to M1 (M1 polarized macrophages) the cells were further incubated with LPS (1 μg/ml), IFNγ (20 ng/ml). For shifting from M1 to M2 macrophages (M2 polarized macrophages) the cells were washed and further incubated with IL-4 (10 ng/ml) and IL-13 (10 ng/ml) for 72 hours.
In order to determine whether TD-PC, TD, PC or PC-OVA can induce a shift form M1 cells to M2 macrophages secreting anti-inflammatory cytokine IL-10, M1 polarized macrophages were incubated with each molecule or conjugate at 5 μg/ml for 72 hrs.

[3] = tested on: splenocytes of NZBW/F1 female mice; test: Cytokine mRNA in splenocytes of lupus mice treated with TD-PC (RT-PCR); type: in vivo; conditions: week 30; vs PBS
Protocol: as §1

[4] = tested on: IL-10+CD25+CD1d+ Breg cells; test: Breg expansion in splenocytes of mice with established CIA (FACS); type: in vivo; conditions: isolated splenocytes; PBS 0.4%
Protocol: The mean percentage of Breg cells in isolated splenocytes following treatment with TD-PC, PBS, TD (SEQ ID NO: 25), PC, TD+PC and None was measured within IL-10+CD25+CD1d+ subset. […] Representative data of IL-10+CD25+CD1d+ levels in splenocytes derived from TD-PC, PBS, TD (SEQ ID NO: 25), PC and TD+PC treated mice gating on IL-10+ B cells, are presented in FIG. 34A.

NZBxW/F1 lupus mice = test: Survival of lupus mice treated with TD-PC (Kaplan-Meier); type: in vivo; conditions: already at week 24
Protocol: A main complication of lupus nephritis is a short survival time due to severe kidney failure. Therefore, the survival time of mice treated either with TD-PC or with PC, tuftsin derivative (SEQ ID NO: 25) or PBS (control) was analyzed.

C[C@@H](O)[C@H](N)C(=O)N[C@@H](CCCCN)C(=O)N1CCC[C@H]1C(=O)N[C@@H](CCCNC(=N)N)C(=O)NCC(=O)N[C@@H](Cc1ccc(O)c(N=Nc2ccc(OP(=O)([O-])OCC[N+](C)(C)C)cc2)c1)C(=O)O [TD-PC, Thr-Lys-Pro-Arg-Gly-Tyr-PC] (H-TKPRG[X1]-OH)
IL-17 secretion from splenocytes ([1]; in vitro): significant decline | IL-10 secretion by splenocytes ([1]; in-vitro): remarkably increased | TGFβ production by splenocytes ([1]; in-vitro): significantly upregulated | reduction of splenocyte secretion of IFNγ ([1]; in-vitro): 5.2 times | Breg phenotype expansion in isolated splenocytes (Breg cells): significantly stimulated | mean arthritis score (DBA/1 CIA mice; day 35, s.c. 3 times a week, PBS 13.8±0.45): 6.8±0.8 | average arthritis score (DBA/1 CIA mice; time 0 (treatment initiation, day 16 after disease induction), baseline): 3.6±0.9 | immune complex (IC) deposits in the mesangium / nephritis class [2]: class-II nephritis | mice with proteinuria above 100 mg/dl ([2]; age of 30 weeks, PBS 72%): 21% | CD4+CD25+FOXP3+ Tregs in spleen cells (CD4+CD25+FOXP3+ Tregs): 18% | shift of M1 macrophages to M2 macrophages secreting IL-10 (THP-1 cells): significant shift | mRNA expression of IFNγ in splenocytes [3]: inhibited | mRNA expression of TGFβ in splenocytes [3]: increased | mean percentage of IL-10+CD25+CD1d+ Breg cells [4]: 13.73% | percentage of death number vs PBS injected mice (NZBxW/F1 lupus mice): significant difference
